Source: ChEMBL document CHEMBL3797106, “Potent and Selective Agonists of Sphingosine 1-Phosphate 1 (S1P1): Discovery and SAR of a Novel Isoxazole Based Series” (J Med Chem, 2016)

Tests used:
[1] = Mean residence time in rat at 2 mg/kg, iv; format: ADME, organism-based; details: in vivo
Rattus norvegicus [2] = assay: Antiarthritic activity in po dosed complete Freund's adjuvant-induced Lewis rat arthritis model assessed as inhibition of bone resorption administered as qd for 21 days started from day of immunization; format: functional, organism-based
[3] = Cmax in dog at 1 mg/kg, po; format: ADME, organism-based, Canis lupus familiaris; set-up: dose 1 mg/kg, route oral; details: in vivo
[4] = Plasma concentration in Lewis rat at 1 mg/kg, po measured at 4 hrs; format: ADME, organism-based
[5] = Volume of distribution at steady state in dog at 1 mg/kg, iv; format: ADME, organism-based, Canis lupus familiaris; details: in vivo, read-out: Vdss
Rattus norvegicus [6] = assay: Antiarthritic activity in po dosed complete Freund's adjuvant-induced Lewis rat arthritis model assessed as suppression of paw swelling administered as qd for 21 days started from day of immunization measured 3 times per week of compound dosing by water displacement plethysmometry; format: functional; details: 504 h
[7] = Volume of distribution at steady state in rat at 2 mg/kg, iv; format: ADME, organism-based; details: in vivo, read-out: Vdss
[8] = Tmax in rat at 5 mg/kg, po; format: ADME, organism-based; details: in vivo
Mus musculus [9] = assay: Inhibition of inflammation in spinal cord of po dosed C57BL/6 mouse experimental autoimmune encephalomyelitis model of multiple sclerosis administered as qd for 24 days started from day of immunization; format: functional, organism-based
[10] = Half life in rat at 2 mg/kg, iv; format: ADME, organism-based; details: in vivo
Homo sapiens [11] = species: Homo sapiens; assay: Selectivity ratio of EC50 for human S1P3 receptor to EC50 for human S1P1 receptor
[12] = Cmax in mouse at 10 mg/kg, po; format: ADME, organism-based; set-up: dose 10 mg/kg, route oral; details: in vivo
Homo sapiens [13] = species: Homo sapiens; assay: Inhibition of calcium channel (unknown origin) at 10 uM by patch clamp method relative to control
[14] = Mean residence time in dog at 1 mg/kg, iv; format: ADME, organism-based, Canis lupus familiaris; details: in vivo
Cytochrome P450 1A2 = molecular target: T1, Cytochrome P450 1A2 (Homo sapiens, UniProt P05177); assay: Inhibition of CYP1A2 (unknown origin); format: ADME
T1 sequence (P05177 whole entry): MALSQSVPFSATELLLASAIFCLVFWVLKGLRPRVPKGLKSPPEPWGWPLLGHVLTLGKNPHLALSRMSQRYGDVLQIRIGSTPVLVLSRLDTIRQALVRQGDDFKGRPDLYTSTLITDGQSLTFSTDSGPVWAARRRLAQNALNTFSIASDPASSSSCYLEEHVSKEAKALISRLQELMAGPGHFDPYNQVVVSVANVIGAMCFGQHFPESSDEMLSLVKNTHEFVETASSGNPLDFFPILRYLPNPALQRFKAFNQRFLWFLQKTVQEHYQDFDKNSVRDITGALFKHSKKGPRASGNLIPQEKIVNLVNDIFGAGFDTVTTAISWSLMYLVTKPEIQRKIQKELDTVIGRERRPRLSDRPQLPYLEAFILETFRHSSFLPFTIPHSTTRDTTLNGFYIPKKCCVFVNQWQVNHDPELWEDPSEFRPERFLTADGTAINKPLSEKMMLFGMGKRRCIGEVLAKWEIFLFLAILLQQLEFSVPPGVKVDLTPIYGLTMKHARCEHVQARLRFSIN

Mus musculus [15] = assay: Induction of delay in disease onset in po dosed C57BL/6 mouse experimental autoimmune encephalomyelitis model of multiple sclerosis administered as qd for 24 days started from day of immunization measured 3 times per week of compound dosing; format: functional, organism-based
[16] = Mean residence time in cynomolgus monkey at 2 mg/kg, iv; format: ADME, organism-based, Macaca fascicularis; details: in vivo
[17] = Permeability across apical to basolateral side in human Caco2 cells; format: ADME, cell-based; details: Caco-2, read-out: permeability
[18] = Cmax in cynomolgus monkey at 5 mg/kg, po; format: ADME, organism-based, Macaca fascicularis; set-up: dose 5 mg/kg, route oral; details: in vivo
[19] = Oral bioavailability in cynomolgus monkey at 5 mg/kg; format: ADME, organism-based, Macaca fascicularis; details: in vivo
Rattus norvegicus [20] = assay: Reduction of blood lymphocyte level in Lewis rat at 1 mg/kg, po measured at 24 hrs by hematology analyzer relative to vehicle-treated control; format: functional; set-up: scale not given: the % may be the effect or the level left
Cytochrome P450 2D6 = Cytochrome P450 2D6 (Homo sapiens, UniProt P10635); assay: Inhibition of CYP2D6 (unknown origin); format: ADME
[21] = Mean residence time in mouse at 2 mg/kg, iv; format: ADME, organism-based; details: in vivo
[22] = molecular target: T2, Sphingosine 1-phosphate receptor 1 (Homo sapiens, UniProt P21453); assay: Induction of internalization of C-terminal GFP-fused human S1P1 receptor expressed in CHO […] at 4.6 nM after 50 mins relative to control; format: cell-based
[23] = Plasma concentration in Lewis rat at 0.03 mg/kg, po measured at 24 hrs; format: ADME, organism-based
[24] = Dissociation constant, pKa of the compound; format: physicochemical
Rattus norvegicus [25] = assay: Reduction of blood lymphocyte level in Lewis rat at 0.03 mg/kg, po measured at 4 hrs by hematology analyzer relative to vehicle-treated control; format: functional; set-up: scale not given: the % may be the effect or the level left
Rattus norvegicus [26] = assay: Ratio of Cmax to Cmin in rat at 5 mg/kg, po; format: ADME, organism-based; details: in vivo
Canis familiaris = assay: Ratio of Cmax to Cmin in dog at 1 mg/kg, po; format: ADME, organism-based, Canis lupus familiaris; details: in vivo
Cytochrome P450 2B6 = molecular target: T3, Cytochrome P450 2B6 (Homo sapiens, UniProt P20813); assay: Inhibition of CYP2B6 (unknown origin); format: ADME
T3 sequence (P20813 whole entry): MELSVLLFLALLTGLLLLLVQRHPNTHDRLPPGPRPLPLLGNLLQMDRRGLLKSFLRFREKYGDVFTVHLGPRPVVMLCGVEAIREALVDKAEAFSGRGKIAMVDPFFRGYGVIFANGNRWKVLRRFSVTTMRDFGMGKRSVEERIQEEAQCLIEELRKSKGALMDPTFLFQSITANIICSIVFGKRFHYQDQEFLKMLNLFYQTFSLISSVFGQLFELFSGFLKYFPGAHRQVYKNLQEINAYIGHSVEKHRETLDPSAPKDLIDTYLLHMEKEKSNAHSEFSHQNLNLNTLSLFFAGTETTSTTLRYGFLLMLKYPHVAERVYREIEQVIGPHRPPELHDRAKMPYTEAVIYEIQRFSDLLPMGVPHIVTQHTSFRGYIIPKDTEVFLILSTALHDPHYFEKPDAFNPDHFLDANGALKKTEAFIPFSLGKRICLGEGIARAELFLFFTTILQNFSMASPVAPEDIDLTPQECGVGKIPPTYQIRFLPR

[27] = Plasma concentration in Lewis rat at 1 mg/kg, po measured at 24 hrs; format: ADME, organism-based
[28] = molecular target: Sphingosine 1-phosphate receptor 3 (Homo sapiens, UniProt Q99500); assay: Agonist activity at human S1P3 receptor expressed in EDG3-Ga15-bla HEK293T cell membranes after 45 mins by [35S]-GTPgammaS binding assay; format: functional, HEK-293T
[29] = molecular target: T2, Sphingosine 1-phosphate receptor 1; assay: Agonist activity at human S1P1 receptor expressed in CHO cell membranes after 45 mins by [35S]-GTPgammaS binding assay; format: functional
Mus musculus [30] = assay: Clearance in mouse at 2 mg/kg, iv relative to hepatic blood flow; format: ADME, organism-based; details: in vivo
Rattus norvegicus [31] = assay: Reduction of blood lymphocyte level in po dosed Lewis rat measured at 4 to 24 hrs by hematology analyzer; format: functional, organism-based
Mus musculus [32] = assay: Reduction in overall disease severity in po dosed C57BL/6 mouse experimental autoimmune encephalomyelitis model of multiple sclerosis administered as qd for 24 days started from day of immunization measured 3 times per week of compound dosing; format: functional, organism-based
[33] = Cmax in rat at 5 mg/kg, po; format: ADME, organism-based; set-up: dose 5 mg/kg, route oral; details: in vivo
[34] = Plasma protein binding in rat; format: ADME, cell-free; details: read-out: PPB (converted)

T2 sequence (P21453 whole entry, the tested form may be a part): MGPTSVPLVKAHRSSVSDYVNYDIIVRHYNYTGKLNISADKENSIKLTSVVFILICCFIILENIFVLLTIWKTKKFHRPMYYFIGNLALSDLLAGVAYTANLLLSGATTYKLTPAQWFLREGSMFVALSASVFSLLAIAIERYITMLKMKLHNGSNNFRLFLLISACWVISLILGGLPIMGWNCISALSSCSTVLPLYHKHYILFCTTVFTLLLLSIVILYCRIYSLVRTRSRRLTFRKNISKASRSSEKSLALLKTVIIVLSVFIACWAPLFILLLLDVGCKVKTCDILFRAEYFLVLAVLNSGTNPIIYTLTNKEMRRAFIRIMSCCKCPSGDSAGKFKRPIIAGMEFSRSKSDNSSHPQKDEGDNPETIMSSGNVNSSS
Sequence of Sphingosine 1-phosphate receptor 3 (Q99500 whole entry): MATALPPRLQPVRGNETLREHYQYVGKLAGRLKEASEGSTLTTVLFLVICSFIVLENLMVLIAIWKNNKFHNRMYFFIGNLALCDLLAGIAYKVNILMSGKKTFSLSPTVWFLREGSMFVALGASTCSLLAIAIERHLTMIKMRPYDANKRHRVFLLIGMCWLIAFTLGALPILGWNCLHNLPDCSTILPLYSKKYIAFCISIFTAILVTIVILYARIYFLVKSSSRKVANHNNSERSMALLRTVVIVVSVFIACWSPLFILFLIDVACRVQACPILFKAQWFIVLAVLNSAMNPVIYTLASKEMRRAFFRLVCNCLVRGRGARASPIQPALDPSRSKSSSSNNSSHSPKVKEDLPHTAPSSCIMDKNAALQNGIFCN
Sequence of Cytochrome P450 2D6 (P10635 whole entry): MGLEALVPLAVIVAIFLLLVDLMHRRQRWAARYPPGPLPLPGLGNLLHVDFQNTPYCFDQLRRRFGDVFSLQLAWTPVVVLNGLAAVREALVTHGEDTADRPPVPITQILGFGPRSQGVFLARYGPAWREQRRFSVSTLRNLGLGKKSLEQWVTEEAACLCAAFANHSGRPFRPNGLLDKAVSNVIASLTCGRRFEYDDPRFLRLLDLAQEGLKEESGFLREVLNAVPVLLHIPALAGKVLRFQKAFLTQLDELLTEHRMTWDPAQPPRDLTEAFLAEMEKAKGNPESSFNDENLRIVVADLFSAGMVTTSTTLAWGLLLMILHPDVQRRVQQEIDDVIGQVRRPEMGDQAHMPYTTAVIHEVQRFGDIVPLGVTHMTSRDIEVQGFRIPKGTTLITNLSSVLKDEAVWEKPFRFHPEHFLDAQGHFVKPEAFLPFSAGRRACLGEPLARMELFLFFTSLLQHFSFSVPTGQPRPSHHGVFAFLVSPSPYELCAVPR

O=C(O)C1CN(Cc2ccc(-c3noc(-c4onc(-c5ccccc5)c4C(F)(F)F)n3)cc2)C1
MRT [1]: 14 h | inhibition (Rattus norvegicus [2]): Dose-dependent effect | Cmax [3]: 1300 nM | concentration at 4 h [4]: 2100 nM | Vd [5]: 0.7 L/kg | ED50 (Rattus norvegicus [6]): 0.05 mg/kg | Vd [7]: 1.4 L/kg | Tmax [8]: 3.3 h | inhibition (Mus musculus [9]): Dose-dependent effect | half-life [10]: 10 h | Ratio EC50 (Homo sapiens [11]): 3400 | Cmax [12]: 31000 nM | inhibition (Homo sapiens [13]): 12% | MRT [14]: 8.9 h | IC50 (Cytochrome P450 1A2): > 40 µM | Activity (Mus musculus [15]): Dose-dependent effect | MRT [16]: 2.2 h | Papp A→B [17]: 10.4 ×10⁻⁶ cm/s | Cmax [18]: 4000 nM | bioavailability [19]: 70% | Activity (Rattus norvegicus [20]): 91% | IC50 (Cytochrome P450 2D6): > 40 µM | MRT [21]: 14 h | Activity [22]: > 90% | concentration at 24 h [23]: 4 nM | pKa [24]: 3.7 | Activity (Rattus norvegicus [25]): 75% | Ratio (Rattus norvegicus [26]): 6 | Ratio (Canis familiaris): 9 | IC50 (Cytochrome P450 2B6): > 40 µM | concentration at 24 h [27]: 700 nM | EC50 [28]: 1.6 µM | EC50 [29]: 0.00047 µM | CL (Mus musculus [30]): 0.3% | Activity (Rattus norvegicus [31]): Dose-dependent effect | Activity (Mus musculus [32]): Dose-dependent effect | Cmax [33]: 3900 nM | fraction unbound [34]: 0.006
